Here are results for four compounds from ChEMBL document CHEMBL5465560, “Selectivity Literature for EUbOPEN Chemogenomic Library” (2024).

One assay addresses Misshapen-like kinase 1 (Homo sapiens, UniProt Q8N4C8). Briefly: Selectivity interaction (KinomeScan (DiscoverX)) EUB0000666a MINK1. Particulars: at 10 µM.
In assay [1] the target is T1, Mitogen-activated protein kinase kinase kinase 3 (Homo sapiens) (UniProt Q99759).
T1 sequence (whole entry): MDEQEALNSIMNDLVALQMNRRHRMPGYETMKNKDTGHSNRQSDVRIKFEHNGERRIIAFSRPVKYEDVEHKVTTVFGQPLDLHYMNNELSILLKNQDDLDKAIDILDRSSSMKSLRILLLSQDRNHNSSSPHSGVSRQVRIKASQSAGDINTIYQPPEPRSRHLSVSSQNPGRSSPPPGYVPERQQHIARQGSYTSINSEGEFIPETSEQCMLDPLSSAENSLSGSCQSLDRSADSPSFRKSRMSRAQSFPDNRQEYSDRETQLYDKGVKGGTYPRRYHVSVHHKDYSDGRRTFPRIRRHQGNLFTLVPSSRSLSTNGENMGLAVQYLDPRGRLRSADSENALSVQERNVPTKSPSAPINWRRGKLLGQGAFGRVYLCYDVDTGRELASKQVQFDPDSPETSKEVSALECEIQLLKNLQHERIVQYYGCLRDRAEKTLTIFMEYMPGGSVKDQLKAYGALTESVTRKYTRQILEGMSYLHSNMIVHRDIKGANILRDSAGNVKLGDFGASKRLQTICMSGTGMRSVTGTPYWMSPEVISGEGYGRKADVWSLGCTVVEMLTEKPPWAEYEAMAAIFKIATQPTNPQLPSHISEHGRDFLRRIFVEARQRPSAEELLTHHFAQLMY
Briefly: Selectivity interaction (ActivX KiNativ screen (kinase selectivity in THP-1 cell lysates)) EUB0000639a MAP3K3. The class given is subcellular. Particulars: lysate, at 0.04 µM.

The target in assay [2] is T2, Bone morphogenetic protein receptor type-2 (Homo sapiens) (UniProt Q13873).
T2 sequence (whole entry): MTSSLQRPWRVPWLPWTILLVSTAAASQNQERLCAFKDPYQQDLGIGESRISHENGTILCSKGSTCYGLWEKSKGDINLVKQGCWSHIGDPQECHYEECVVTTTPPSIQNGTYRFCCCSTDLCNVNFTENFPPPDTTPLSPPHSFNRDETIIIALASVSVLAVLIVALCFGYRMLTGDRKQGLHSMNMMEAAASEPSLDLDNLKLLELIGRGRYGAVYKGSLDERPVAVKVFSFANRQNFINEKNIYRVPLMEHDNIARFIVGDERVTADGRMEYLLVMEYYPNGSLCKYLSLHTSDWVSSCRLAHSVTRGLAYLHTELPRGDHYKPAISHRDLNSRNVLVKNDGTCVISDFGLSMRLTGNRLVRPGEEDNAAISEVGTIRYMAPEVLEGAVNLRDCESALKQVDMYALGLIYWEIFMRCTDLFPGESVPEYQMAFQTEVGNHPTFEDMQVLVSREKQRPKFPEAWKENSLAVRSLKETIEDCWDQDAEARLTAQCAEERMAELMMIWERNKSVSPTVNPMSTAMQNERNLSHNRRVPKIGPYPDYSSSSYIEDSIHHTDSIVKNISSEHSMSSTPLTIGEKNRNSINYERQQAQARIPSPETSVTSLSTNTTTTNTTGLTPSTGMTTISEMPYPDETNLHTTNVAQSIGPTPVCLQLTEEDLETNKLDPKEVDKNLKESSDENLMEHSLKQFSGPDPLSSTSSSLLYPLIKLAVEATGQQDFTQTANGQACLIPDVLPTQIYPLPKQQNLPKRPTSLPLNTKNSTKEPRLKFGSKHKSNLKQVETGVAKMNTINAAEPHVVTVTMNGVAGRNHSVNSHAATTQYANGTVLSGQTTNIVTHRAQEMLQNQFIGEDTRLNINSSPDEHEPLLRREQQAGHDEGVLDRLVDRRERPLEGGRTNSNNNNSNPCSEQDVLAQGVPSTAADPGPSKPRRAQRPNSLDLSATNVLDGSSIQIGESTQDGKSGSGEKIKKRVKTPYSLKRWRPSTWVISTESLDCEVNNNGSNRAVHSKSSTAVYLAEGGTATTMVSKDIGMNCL
As to the kind of experiment: Selectivity interaction (Ambit KINOMEscan and KiNATiv profiling in Jurkat cells) EUB0000090b BMPR2. Type of assay: cell-based. Particulars: at 1 µM.

Assay [3] has as its target T3, Testis-specific serine/threonine-protein kinase 1 (Homo sapiens) (UniProt Q9BXA7).
T3 sequence (whole entry): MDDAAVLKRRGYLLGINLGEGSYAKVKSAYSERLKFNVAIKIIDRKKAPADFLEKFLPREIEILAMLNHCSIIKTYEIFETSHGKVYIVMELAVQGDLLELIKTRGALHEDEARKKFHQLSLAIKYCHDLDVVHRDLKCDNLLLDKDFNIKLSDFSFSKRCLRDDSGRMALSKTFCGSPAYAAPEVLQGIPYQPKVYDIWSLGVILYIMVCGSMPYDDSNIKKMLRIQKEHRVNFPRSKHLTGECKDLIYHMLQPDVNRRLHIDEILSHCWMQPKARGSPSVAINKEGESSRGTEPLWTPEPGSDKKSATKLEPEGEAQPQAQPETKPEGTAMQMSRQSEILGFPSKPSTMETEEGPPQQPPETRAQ
As to the kind of experiment: Selectivity interaction (KinomeScan (DiscoverX)) EUB0000655a TSSK1A. Particulars: at 10 µM.

Chain of Misshapen-like kinase 1 (Q8N4C8 whole entry, looked up): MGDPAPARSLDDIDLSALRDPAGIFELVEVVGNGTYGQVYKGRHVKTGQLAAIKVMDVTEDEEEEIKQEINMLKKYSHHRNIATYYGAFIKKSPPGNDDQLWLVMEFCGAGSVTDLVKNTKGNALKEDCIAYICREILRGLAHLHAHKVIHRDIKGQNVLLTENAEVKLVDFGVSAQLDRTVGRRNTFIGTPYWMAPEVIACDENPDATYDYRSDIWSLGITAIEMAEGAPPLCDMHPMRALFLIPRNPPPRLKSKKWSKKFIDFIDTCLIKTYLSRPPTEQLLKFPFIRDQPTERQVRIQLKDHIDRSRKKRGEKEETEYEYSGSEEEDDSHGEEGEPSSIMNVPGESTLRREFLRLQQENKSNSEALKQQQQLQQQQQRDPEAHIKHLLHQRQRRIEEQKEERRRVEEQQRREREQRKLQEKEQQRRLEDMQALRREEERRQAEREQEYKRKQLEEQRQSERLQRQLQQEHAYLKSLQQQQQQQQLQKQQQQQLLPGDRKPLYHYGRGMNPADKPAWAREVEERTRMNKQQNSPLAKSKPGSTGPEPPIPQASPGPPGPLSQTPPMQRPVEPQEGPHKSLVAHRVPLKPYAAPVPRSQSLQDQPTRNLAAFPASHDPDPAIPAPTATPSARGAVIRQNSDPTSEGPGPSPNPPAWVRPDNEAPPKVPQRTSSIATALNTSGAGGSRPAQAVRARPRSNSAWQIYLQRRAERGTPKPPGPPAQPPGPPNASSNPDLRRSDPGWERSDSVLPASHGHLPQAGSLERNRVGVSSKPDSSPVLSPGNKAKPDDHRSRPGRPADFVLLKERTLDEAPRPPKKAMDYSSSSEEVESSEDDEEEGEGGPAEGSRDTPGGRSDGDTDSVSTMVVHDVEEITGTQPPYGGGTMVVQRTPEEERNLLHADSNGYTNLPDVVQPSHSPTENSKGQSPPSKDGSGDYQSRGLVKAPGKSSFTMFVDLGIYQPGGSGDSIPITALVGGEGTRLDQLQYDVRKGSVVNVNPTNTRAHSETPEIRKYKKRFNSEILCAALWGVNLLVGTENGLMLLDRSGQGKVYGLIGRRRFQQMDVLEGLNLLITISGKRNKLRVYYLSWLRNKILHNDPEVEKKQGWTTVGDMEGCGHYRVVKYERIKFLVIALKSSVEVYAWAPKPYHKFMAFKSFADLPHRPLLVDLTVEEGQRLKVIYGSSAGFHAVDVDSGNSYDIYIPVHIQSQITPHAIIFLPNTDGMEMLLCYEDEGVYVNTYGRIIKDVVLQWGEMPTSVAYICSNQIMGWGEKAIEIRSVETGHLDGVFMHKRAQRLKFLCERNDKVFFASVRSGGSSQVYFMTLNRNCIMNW

On Misshapen-like kinase 1, `O=C(NOC[C@H](O)CO)c1ccc(F)c(F)c1Nc1ccc(I)cc1F` showed a % of control of 94%.
As to `CC[C@@H]1[C@H](F)C(=O)N[C@@H]1COc1nccc2cc(C(N)=O)c(OC)cc12` [ZIMLOVISERTIB], the % of inhibition in assay [1] was 8.3%.
`CN(C)C/C=C/C(=O)Nc1ccc(C(=O)N2CCCC(Nc3ncc(Cl)c(-c4c[nH]c5ccccc45)n3)C2)cc1` (centres undefined) gave a % of control in assay [2] of 100%.
Consider `CN(C)CCOc1ccc(-c2nc(-c3ccncc3)c(-c3ccc4c(c3)CC/C4=N\O)[nH]2)cc1`, for which the % of control in assay [3] came to 86%.
